Results on 13 compounds are retold here after ChEMBL document CHEMBL1201862, “PubChem BioAssay data set” (2004).

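Test compounds were applied to cells in 96-well plates for 48 hours at 5 doses. Abbreviation: GI50, concentration required for 50% inhibition of growth.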 Calls of active or inactive are those of the source. No stated cut-off is given here; in the data, active = GI50 up to about 1.1 µM and inactive = higher.

Some test systems named below: A498; ACHN; DU-145; HCT-15; Hs-578T; MCF7; MDA-N; MOLT-4; NCI-H226; NCI-H460; PC-3; RPMI-8226; SK-MEL-5; T47D; U-251.
Assay in all cases: growth of human tumour cells (NCI), 48 h

As to `CC(=O)OCCOCn1cnc2c(Cl)nc(Cl)nc21`, the GI50 in the test with A498 was 32.2 µM (inactive); in the test with ACHN it was 16.5 µM (inactive); with DU-145, 19.5 µM (inactive); in the test with HCT-15 it was 3.64 µM; in the test with Hs-578T, 18.7 µM (inactive); in the test on MCF7 it was > 10 µM (inactive). Besides, the GI50 with MDA-N was 17.4 µM (inactive); in the test with MOLT-4 it was 19.2 µM (inactive); in the test with NCI-H226, 19.2 µM (inactive); in the test with NCI-H460, 18.5 µM (inactive); with PC-3, 17 µM (inactive); with RPMI-8226, 5.97 µM (inactive). Also, the GI50 in the test on SK-MEL-5 was 18.1 µM (inactive); in the test on T47D, 10 µM (inactive); with U-251, 15 µM (inactive).
For `COc1ccc2nc3c([N+](=O)[O-])ccc(NCCN(C)C)c3c(N)c2c1`, the GI50 with A498 was 2.07 µM (inactive); in the test with ACHN it was 1.09 µM (active); in the test on DU-145, 1.75 µM (inactive); in the test with HCT-15, 1.16 µM; with Hs-578T, 2.62 µM (inactive); in the test with MCF7, 0.513 µM (active). The GI50 in the test with MDA-N is 1.73 µM (inactive); in the test on MOLT-4, 0.479 µM (active); in the test with NCI-H226, 1.97 µM (inactive); with NCI-H460, 1.47 µM (inactive); with PC-3 it was 1.46 µM (inactive); in the test with RPMI-8226, 0.0703 µM (active). Also, the figures for the GI50 in the test with SK-MEL-5, in the test with T47D and with U-251 were 1.81 µM (inactive), 1.17 µM (inactive) and 1.66 µM (inactive), respectively.
As for `O=C1c2ccccc2-n2nnnc2C2CSCN12` (stereo not given), the GI50 was > 100 µM (inactive) in the test on A498; > 100 µM (inactive) in the test with ACHN; > 100 µM (inactive) in the test on DU-145; > 100 µM in the test on HCT-15; > 100 µM (inactive) in the test with Hs-578T; > 100 µM (inactive) in the test with MCF7. For the same compound, the GI50 in the test on MDA-N, in the test with MOLT-4, with NCI-H226, in the test on NCI-H460, with PC-3 and in the test on RPMI-8226 was > 100 µM (inactive) in each case. In addition, the GI50 in the test with SK-MEL-5, in the test on T47D and with U-251 was > 100 µM (inactive) in each case.
In the case of `CSC1(SC2=NCCN2)SC2(NCCN2)S1`, the GI50 in the test on A498 is 12.6 µM (inactive); in the test on ACHN it was 19 µM (inactive); with DU-145 it was 14.8 µM (inactive); in the test on HCT-15, 17.7 µM; in the test with Hs-578T, 24.3 µM (inactive); in the test on MCF7 it was 3.18 µM (inactive). The GI50 in the test on MDA-N is 20.5 µM (inactive); with MOLT-4 it was 10.8 µM (inactive); in the test with NCI-H226, 27.2 µM (inactive); with NCI-H460, 20.5 µM (inactive); with PC-3, 18.5 µM (inactive); in the test with RPMI-8226, 2.77 µM (inactive). Moreover, the GI50 in the test with SK-MEL-5 is 18.9 µM (inactive); with T47D, 0.9 µM (active); in the test on U-251, 17.9 µM (inactive).
Consider `COc1cc(OC)cc(Oc2nc3ccc(C(F)(F)F)cc3nc2-c2ccccc2)c1`, for which the GI50 in the test with A498 was > 100 µM (inactive); in the test on ACHN it was > 100 µM (inactive); in the test with DU-145, > 100 µM (inactive); in the test with HCT-15, > 100 µM; in the test on Hs-578T, > 100 µM (inactive); in the test on MCF7, > 100 µM (inactive). Further, the GI50 was > 100 µM (inactive) with MDA-N; > 100 µM (inactive) in the test with MOLT-4; > 100 µM (inactive) in the test with NCI-H226; > 100 µM (inactive) with NCI-H460; > 100 µM (inactive) in the test with PC-3; 52.5 µM (inactive) in the test on RPMI-8226. For the same compound, the GI50 is > 100 µM (inactive) in the test with SK-MEL-5, 28.4 µM (inactive) in the test on T47D and > 100 µM (inactive) in the test on U-251.
In the case of `COc1ccc(C(SCCO)(c2ccccc2)c2ccc(OC)cc2)cc1`, the GI50 in the test on A498 is 13.9 µM (inactive); with ACHN, 16 µM (inactive); in the test with DU-145, 15.5 µM (inactive); in the test on HCT-15, 13.5 µM; with Hs-578T, 11.1 µM (inactive); in the test on MCF7, 5.36 µM (inactive). Also, the GI50 in the test with MDA-N is 5.32 µM (inactive); in the test on MOLT-4, 12.4 µM (inactive); with NCI-H226 it was 13.6 µM (inactive); in the test on NCI-H460 it was 4.61 µM (inactive); with PC-3, 14.5 µM (inactive); in the test on RPMI-8226, 24.9 µM (inactive). The GI50 was 8 µM (inactive) in the test with SK-MEL-5, 11.9 µM (inactive) in the test with T47D and 4.46 µM (inactive) with U-251.
In the case of `COc1ccc(/C=C/C(=N/NC(=O)N/N=C(/C=C/c2ccc(OC)cc2)C(C)(C)CN2CCCCC2)C(C)(C)CN2CCCCC2)cc1`, the GI50 was 2.22 µM (inactive) in the test on A498; 1.75 µM (inactive) with ACHN; > 10 µM (inactive) in the test on DU-145; 3.12 µM with HCT-15; 1.87 µM (inactive) in the test with Hs-578T; 2.35 µM (inactive) in the test with MCF7. Also, the GI50 is 1.64 µM (inactive) in the test on MDA-N; 1.71 µM (inactive) in the test with MOLT-4; 1.5 µM (inactive) in the test with NCI-H226; 1.65 µM (inactive) with NCI-H460; 2.28 µM (inactive) in the test on PC-3; 1.69 µM (inactive) in the test on RPMI-8226. Moreover, the GI50 in the test with SK-MEL-5 was 1.63 µM (inactive); in the test with T47D, 1.99 µM (inactive); with U-251, 1.85 µM (inactive).
In the case of `CC(C)(C)OC(=O)CC(NC(=O)OC(C)(C)C)C(=O)NC(C(=O)O)C(O)c1ccccc1` (stereo not given), the GI50 in the test on A498 is > 100 µM (inactive); in the test on ACHN, > 100 µM (inactive); with DU-145 it was > 100 µM (inactive); in the test with HCT-15, > 100 µM; in the test on Hs-578T it was 70.8 µM (inactive); in the test on MCF7, 37.6 µM (inactive). Besides, the GI50 was > 100 µM (inactive) in the test with MDA-N; 32.4 µM (inactive) in the test with MOLT-4; 13.9 µM (inactive) with NCI-H226; 69.7 µM (inactive) in the test with NCI-H460; 91.4 µM (inactive) with PC-3; 70.1 µM (inactive) in the test on RPMI-8226. Also, the GI50 is 56 µM (inactive) in the test with SK-MEL-5, 80.9 µM (inactive) in the test with T47D and 77.6 µM (inactive) with U-251.
As for `Sc1ncnc2c1ncn2Cc1ccco1`, the GI50 is > 100 µM (inactive) in the test on A498; > 100 µM (inactive) in the test on ACHN; > 100 µM (inactive) in the test with DU-145; > 100 µM in the test with HCT-15; > 100 µM (inactive) with Hs-578T; > 100 µM (inactive) with MCF7. In addition, the GI50 in the test on MDA-N, in the test on MOLT-4, in the test on NCI-H226, with NCI-H460, with PC-3 and in the test on RPMI-8226 was > 100 µM (inactive) in each case. The GI50 in the test on SK-MEL-5, with T47D and in the test on U-251 was > 100 µM (inactive) throughout.
In the case of `N#CC[C@@H](O)COc1ccccc1`, the GI50 in the test on A498 was > 100 µM (inactive); in the test on ACHN, > 100 µM (inactive); in the test on DU-145, > 100 µM (inactive); in the test with HCT-15, > 100 µM; in the test with Hs-578T, > 100 µM (inactive); in the test with MCF7 it was > 100 µM (inactive). Besides, the GI50 with MDA-N, in the test on MOLT-4, in the test on NCI-H226, in the test on NCI-H460, in the test with PC-3 and in the test with RPMI-8226 was > 100 µM (inactive) each time. For the same compound, the GI50 in the test on SK-MEL-5, in the test with T47D and with U-251 was > 100 µM (inactive) throughout.
Turning to `OC1(C(O)(c2ccc(-c3ccccc3)cc2)c2ccc(-c3ccccc3)cc2)CCCCC1`, the GI50 with A498 was > 100 µM (inactive); in the test with ACHN it was > 100 µM (inactive); with DU-145, > 100 µM (inactive); in the test with HCT-15, 23 µM; in the test on Hs-578T, > 100 µM (inactive); in the test with MCF7 it was 96.8 µM (inactive). Moreover, the GI50 with MDA-N is > 100 µM (inactive); with MOLT-4 it was 23.9 µM (inactive); in the test with NCI-H226, > 100 µM (inactive); in the test with NCI-H460 it was 44 µM (inactive); in the test with PC-3, > 100 µM (inactive); in the test with RPMI-8226, > 100 µM (inactive). Also, the GI50 is 63.4 µM (inactive) in the test with SK-MEL-5, > 100 µM (inactive) in the test on T47D and > 100 µM (inactive) in the test on U-251.
On to `CCCCCCCCCCCCCCCCCCNc1ccn(C2OC(COP(=O)(O)OCC3OC(n4ccc(N)nc4=O)C(O)C3O)C(O)C2O)c(=O)n1` (stereo not given), for which the GI50 with A498 was > 100 µM (inactive); in the test on ACHN, 29.9 µM (inactive); in the test on DU-145, 44.2 µM (inactive); with HCT-15, 55.6 µM; in the test on Hs-578T, > 100 µM (inactive); in the test with MCF7, 45.2 µM (inactive). Besides, the GI50 in the test on MDA-N is > 100 µM (inactive); in the test with MOLT-4 it was 2.45 µM (inactive); in the test with NCI-H226, > 100 µM (inactive); in the test with NCI-H460, 14.3 µM (inactive); in the test on PC-3, 39.8 µM (inactive); with RPMI-8226, > 100 µM (inactive). In addition, the GI50 with SK-MEL-5 was > 100 µM (inactive); in the test with T47D, > 78.3 µM (inactive); in the test with U-251, 57.8 µM (inactive).
Regarding `COC(=O)C(=O)Nc1cc2c3c(c1)Oc1cccc4c1C3(C)c1c(cccc1O2)O4`, the GI50 in the test on A498 was 39.7 µM (inactive); with ACHN, > 82 µM (inactive); with DU-145, > 44.7 µM (inactive); with HCT-15, 97.5 µM; with Hs-578T, > 83.4 µM (inactive); in the test with MCF7 it was > 100 µM (inactive). The GI50 in the test on MDA-N was > 100 µM (inactive); in the test on MOLT-4, 39.2 µM (inactive); in the test with NCI-H226 it was 4.75 µM (inactive); in the test with NCI-H460 it was > 100 µM (inactive); with PC-3 it was 97.1 µM (inactive); with RPMI-8226, > 44.8 µM (inactive). Further, the GI50 in the test on SK-MEL-5 was > 100 µM (inactive); in the test with T47D it was > 61.7 µM (inactive); with U-251, > 100 µM (inactive).
